Test results published in patent US8049038B2, “Carnitine conjugates of adamantanamines derivatives as dual prodrugs for various uses” (priority 2006, dated 2011).

How the values were obtained:
NMDA receptors = assay: NMDA-induced seizure activity and lethality in mice (in vivo test for NMDA antagonist activity); settings: male NIH-Swiss mice, 30 min before NMDA 200 mg/kg IP
From the text: Compounds 3-(3,5-dimethyladamantan-1-ylcarbamoyl)-(R)-2-hydroxypropyl)-trimethyl ammonium chloride [Formula 1(B); R1 and R2 are CH3; n=0], and 3-benzyloxycarbonyl-(R)-2-{[(3,5-dimethyladamantan-1-ylcarbamoyl)-propionyloxy]propyl}-trimethyl ammonium bromide [Formula 4(B); R1 and R2 are CH3; n=0; R3, R4, R5, R6 are hydrogen; and R^2 is a benzyl group] were selected for in vivo testing in mice, since both are potential prodrugs for memantine and L-carnitine through in vivo enzymatic hydrolysis of either an amide or ester linkages. Since memantine has N-methyl-D-aspartate (NMDA) antagonist properties, it was assumed that the above compounds would share these properties and therefore a test was utilized that identifies NMDA antagonist activity in vivo. Briefly, this test measures seizure activity and lethality in mice produced by the administration of NMDA […] which block these parameters in a dose-dependent manner (see Leander, J. D., et al., Brain Res. 448, 115-120 (1988), N-methyl-D-aspartate acid-induced lethality in mice: selective antagonism by phencyclidine-like drugs; Parsons, C. G., et al., Neuropharmacol. 34, 1239-1258 (1995).
(§1) Memantine (30 mg/kg; SC) was used as a positive control in each experiment and there were n=8 mice/group for all conditions.

[1] = Toxicity observed in mice after subcutaneous administration in the NMDA test; assay type: in vivo; settings: male NIH-Swiss mice; 120 mg/kg SC; n=8 mice/group
Description: as §1

## CC12CC3CC(C)(C1)CC(NC(=O)C[C@@H](O)C[N+](C)(C)C)(C3)C2.[Cl-] [[3-(3,5-Dimethyl-adamantan-1-ylcarbamoyl)-(R)-2-hydroxy-propyl]-trimethylammonium chloride]
NMDA receptors; 60 mg/kg SC
  activity in NMDA-induced seizure/lethality test: inactive
NMDA receptors; 120 mg/kg SC, observed 30 min
  time to lethality: slightly increased
[1]
  toxicity: tremors, lethality in n=3 mice

## CC12CC3CC(C)(C1)CC(NC(=O)CCC(=O)O[C@H](CC(=O)OCc1ccccc1)C[N+](C)(C)C)(C3)C2.[Br-] [{3-Benzyloxycarbonyl-(R)-2-[3-(3,5-Dimethyladamantan-1-ylcarbamoyl)-propionyloxy]-propyl}-trimethylammonium bromide]
NMDA receptors; 90 mg/kg SC, observed 30 min
  time to produce clonic seizures: markedly increased
  time to produce death: markedly increased
